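Values below derive from 48-hour exposures of cells grown in 96-well plates, with endpoints linearly interpolated between the two concentrations bracketing the appropriate inhibition level. At the GI50, growth is halved. TGI denotes the concentration required for complete inhibition of growth.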
What was measured:
Test in all cases: NCI anticancer screen, dose series, 48 h
A498 renal = tested on: A498 renal
A549 NSCLC = tested on: A549 NSCLC
CCRF-CEM leukemia = tested on: CCRF-CEM leukemia
COLO 205 colon = tested on: COLO 205 colon
M14 melanoma = tested on: M14 melanoma
MOLT-4 leukemia = tested on: MOLT-4 leukemia
NCI-H226 lung = tested on: NCI-H226 lung
NCI-H460 lung = tested on: NCI-H460 lung
OVCAR-4 ovarian = tested on: OVCAR-4 ovarian
SF-268 CNS = tested on: SF-268 CNS

SMILES	GI50 (A498 renal)	TGI (A498 renal)	GI50 (A549 NSCLC)	TGI (A549 NSCLC)	GI50 (CCRF-CEM leukemia)	TGI (CCRF-CEM leukemia)	GI50 (COLO 205 colon)	TGI (COLO 205 colon)	GI50 (M14 melanoma)	TGI (M14 melanoma)	GI50 (MOLT-4 leukemia)	TGI (MOLT-4 leukemia)	GI50 (NCI-H226 lung)	TGI (NCI-H226 lung)	GI50 (NCI-H460 lung)	TGI (NCI-H460 lung)	GI50 (OVCAR-4 ovarian)	TGI (OVCAR-4 ovarian)	GI50 (SF-268 CNS)	TGI (SF-268 CNS)
Cc1ccnc(NC(c2ccccc2)c2ccc3cccnc3c2O)c1 (stereo not given)	2.08 µM	9.55 µM	3.99 µM	45.1 µM	2.43 µM	> 100 µM	14.3 µM	73.4 µM	3.09 µM	29.2 µM	2.53 µM	> 100 µM	4.48 µM	44.6 µM	2.16 µM	6.34 µM	3.2 µM	27.1 µM	2.93 µM	21.5 µM
COc1c(OC)c(OC)c(-c2cc(=O)c3c(OC)c(OC)c(OC)c(OC)c3o2)c(OC)c1OC		89.1 µM		> 100 µM		> 100 µM		> 100 µM		> 100 µM		> 100 µM		> 100 µM		> 100 µM		33.7 µM		> 100 µM
O=C(c1ccccc1)c1c2n(c3c1cc(O)c1ccccc13)CCN2	18.3 µM	35.4 µM	14.2 µM	35.5 µM	1.99 µM	4.67 µM	1.8 µM	3.31 µM	7.09 µM	19.3 µM	2.06 µM	4.45 µM	18.6 µM	41.3 µM	4.7 µM	15.8 µM	1.53 µM	2.86 µM	3.19 µM	9.85 µM
COC1/C=C/OC2(C)Oc3c(C)c(O)c4c(O)c(c(C=NOC(c5ccccc5)c5ccccc5)c(O)c4c3C2=O)NC(=O)/C(C)=C/C=C/C(C)C(O)C(C)C(O)C(C)C(OC(C)=O)C1C (stereo not given)	1.18 µM	4.6 µM	1.58 µM	6.05 µM	0.42 µM	3.62 µM	1.01 µM	2.06 µM	1.18 µM	2.82 µM	1.8 µM	8.03 µM	1.74 µM	8.76 µM	1.05 µM	2.18 µM	1.63 µM	6.01 µM	2.25 µM	8.23 µM
[Au+].c1c[n-]cn1.c1ccc([PH+](c2ccccc2)c2ccccc2)cc1	17.4 µM	34.9 µM	11.7 µM	42.6 µM	1.78 µM	17.3 µM	1.99 µM	4.07 µM	2.34 µM	6.73 µM	2.07 µM	5.15 µM	12.8 µM	51.3 µM	15.3 µM	59.9 µM	13.4 µM	36.7 µM	3.32 µM	28.3 µM
CCOC(=O)Nc1cc(-c2ccc(C)c(NS(C)(=O)=O)c2)nn2c(C)nnc12	1.59 µM	5.88 µM	3.07 µM	> 100 µM	1.01 µM	14.9 µM	0.452 µM	1.55 µM	2.1 µM	> 100 µM	2.45 µM	9.94 µM	3.93 µM	24.4 µM	2.04 µM	> 100 µM	0.735 µM	10.9 µM	4.13 µM	> 100 µM
CS(=O)(=O)c1ccc(-c2cnc(NCc3ccco3)n3cnnc23)cc1	> 100 µM	> 100 µM	> 100 µM	> 100 µM	38 µM	> 100 µM	28.7 µM	> 100 µM	27 µM	> 100 µM	37.4 µM	> 100 µM	49 µM	> 100 µM	> 100 µM	> 100 µM	> 100 µM	> 100 µM	> 100 µM	> 100 µM
Cc1cc(Cl)ccc1Nc1nc2c(s1)C(=O)c1ccccc1C2=O		42 µM		21.4 µM		> 26.3 µM		16.8 µM		1.99 µM		> 25.4 µM		13.7 µM		9.5 µM		9.41 µM		11.3 µM
Nc1nc(-c2ccc3ccccc3c2)cc(-c2cc(-c3ccc4ccccc4c3)nc(N)n2)n1		> 100 µM		> 100 µM		> 100 µM		> 100 µM		> 100 µM		> 100 µM		> 100 µM		> 100 µM		> 100 µM		> 100 µM
CN1c2ccccc2S(=O)(=O)n2c(COc3ccccc3)nnc21		> 100 µM		> 100 µM		> 100 µM		> 100 µM		> 100 µM		> 100 µM		> 100 µM		> 100 µM		> 100 µM		> 100 µM
COc1ccc(C2NC3=C(CCCC3)N2)cc1		> 100 µM		> 100 µM		> 100 µM		> 100 µM		> 100 µM		> 100 µM		> 100 µM		> 100 µM		> 100 µM		> 100 µM
N/C(=N/N=C/c1cccc(F)c1)NO		> 100 µM		98.7 µM		> 100 µM		> 100 µM		56 µM		> 100 µM		> 100 µM		> 100 µM		> 100 µM		68.7 µM
COc1cc(CC(=O)c2cc3c(cc2-c2ccccc2)OCO3)cc(OC)c1OC		> 100 µM		> 100 µM		> 100 µM		> 100 µM		> 100 µM		> 100 µM		79.3 µM		> 100 µM		> 100 µM		> 100 µM
O=[N+]([O-])c1cccc([I+]c2ccccc2)c1	10.4 µM	28.4 µM	3.46 µM	24.1 µM	5.27 µM	90.7 µM	10.1 µM	33.6 µM	11.1 µM	33.5 µM	3.4 µM	39 µM	7.12 µM	21.3 µM	3.56 µM	25.3 µM	7.13 µM	36 µM	7.3 µM	21.2 µM
Cc1nc2cc(Nc3nc(Nc4ccc(F)cc4)nc(N4CCCC4)n3)ccc2n1Cc1ccccc1	1.45 µM	3.24 µM	2.05 µM	4.63 µM	2.38 µM	5.6 µM	1.79 µM	3.48 µM	2.06 µM	4.29 µM	2.52 µM	5.68 µM	1.9 µM	4.29 µM	1.82 µM	3.44 µM	1.62 µM	4 µM	1.94 µM	3.9 µM
